Test results published in BindingDB's records for PubMed 1706470 (Abbott Laboratories, 1991).

Target: T1, Gastrin/cholecystokinin type B receptor (Cavia porcellus, UniProt H0VZC5)
T1 sequence (H0VZC5 whole entry): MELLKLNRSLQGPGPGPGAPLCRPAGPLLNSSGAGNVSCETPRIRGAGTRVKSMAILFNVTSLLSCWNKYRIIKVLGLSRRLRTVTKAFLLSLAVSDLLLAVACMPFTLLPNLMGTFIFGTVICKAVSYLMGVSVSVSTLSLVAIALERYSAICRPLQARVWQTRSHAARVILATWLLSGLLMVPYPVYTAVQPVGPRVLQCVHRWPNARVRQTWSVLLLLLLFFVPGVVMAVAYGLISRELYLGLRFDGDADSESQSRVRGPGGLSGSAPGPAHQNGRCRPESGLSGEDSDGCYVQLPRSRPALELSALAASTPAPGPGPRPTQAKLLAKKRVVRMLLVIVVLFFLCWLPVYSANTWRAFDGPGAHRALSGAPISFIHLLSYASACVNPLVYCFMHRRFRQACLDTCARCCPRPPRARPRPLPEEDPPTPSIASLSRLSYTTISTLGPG

Ki: 0.51 µM
SMILES: CC(C)(C)OC(=O)NC(Cc1c[nH]c2ccccc12)C(=O)N(C(=O)C(N)Cc1ccccc1)C(=O)C(CC(=O)O)NC(=O)C(N)CCCCNC(=O)OCc1ccccc1 (stereo unspecified) [A-57282]
